Columns and labels:
[1] = system: calcineurin (NFAT-luciferase); assay: NFAT-luciferase activity assay (calcineurin activation), mouse primary acinar cells; format: cell-based; conditions: 30 min pre-treatment; FK506 24 μM; CsA 16 μM; BAPTA-AM 64 μM
Experimental: (§1) NFAT-luciferase activity assay. Acinar cells were infected with Ad-NFAT-luciferase following a previously described procedure^10,15,16. The construct includes a luciferase gene placed downstream of an IL-4 promoter which contains nine tandem NFAT binding sites^10. Acinar cells were incubated with the NFAT-driven luciferase adenovirus for 1.5 hr prior to stimulation. All of the stated inhibitors were added for 30 min prior to stimulation with RC. NFAT-luciferase was measured using the luciferase assay system. Briefly, cells were spun at 1,000 rpm for 5 min, washed with PBS, and lysed using reporter lysis 5× buffer (Promega #E397A, Madison, Wis.). Samples were vortexed and spun at 12,000 g for 2 min. Supernatant was plated, and luminescence was measured using a Synergy H1 plate reader (BioTek, Winooski, Vt.) and normalized to total protein.

[2] = system: calcineurin (NFAT-luciferase); assay: NFAT-luciferase activity assay, AR42J cells; format: cell-based; conditions: pretreatment; FK506 24 μM; CsA 16 μM; U73122 5 μM; 2-APB 100 μM; BAPTA 64 μM
Experimental: as §1

primary acinar cells = assay: Cell necrosis assay (propidium iodide uptake), primary acinar cells; format: cell-based, mouse; conditions: 6 hr incubation; U73122 5 μM; 2-APB 100 μM; BAPTA 64 μM; IKK-2 20 μM; FK506 24 μM; CsA 16 μM
Experimental: Cell necrosis assay. Acinar cells were incubated in a 48-well plate with 50 μg/ml of propidium iodide (PI) for 30 min prior to addition of RC. Fluorescence was measured at 536 nm excitation and 617 nm emission wavelengths over time a time course of up to 6 hr. Fluorescence was measured after cell lysis with 0.5% Triton-X 100 was used to normalize the results relative to total DNA.

NF-κB = assay: NF-κB-luciferase activity assay, AR42J cells; format: cell-based; conditions: U73122 5 μM; 2-APB 100 μM; BAPTA 64 μM
Experimental: NF-κB-luciferase activity assay. AR42J cells were differentiated towards an acinar phenotype by administering dexamethasone (100 nM) for 48-72 hr^17. AR42J cells were infected with Ad-NF-κB luciferase 16 h prior to stimulation using a previously described method^12. Following a wash with DMEM/F12 medium, acinar cells were evenly distributed in a 48-well plate and incubated for 30 min at 37° C. They were incubated with RC at varying concentrations and times. NF-κB-luciferase was measured using a commercially available luciferase assay (Promega, Madison, Wis.). Briefly, cells were spun at 1,000 rpm for 5 min, washed with PBS, and lysed using reporter lysis 5× buffer (Promega, catalog no. E397A). Samples were vortexed and spun at 12,000×g for 2 min. The supernatant was plated, and luminescence was measured using a Synergy H1 plate reader (BioTek, Winooski, Vt.) and normalized to total […].

[3] = system: calcineurin (NFAT-luciferase); assay: NFAT-luciferase activity assay, human acinar cells; format: cell-based
Experimental: as §1

Compound: CC(=O)OCOC(=O)CN(CC(=O)OCOC(C)=O)c1ccccc1OCCOc1ccccc1N(CC(=O)OCOC(C)=O)CC(=O)OCOC(C)=O [BAPTA, BAPTA-AM]
- effect on RC (9%)-induced rise in NFAT-luciferase [1]: completely reduced
- effect on RC (6%)-induced NFAT-luciferase activity [2]: prevented
- effect on RC (12%)-induced acinar cell injury (PI uptake) (primary acinar cells): prevented
- effect on RC-induced NF-κB-luciferase levels (NF-κB): reduced
- effect on RC (25%)-induced NFAT-luciferase activity [3]: prevented
